Assays:
[1] = system: Wnt activity (Sp5-Luc reporter gene, SW480 colon carcinoma cells); experiment: Screening assay for Wnt activity: Sp5-Luc reporter gene assay in SW480 cells; format: cell-based, human; conditions: Homo sapiens, overnight incubation
Excerpt: The screening assay for Wnt activity is described as follows. Reporter cell lines can be generated by stably transducing cancer cell lines (e.g., colon cancer) or primary cells (e.g., IEC-6 intestinal cells) with a lentiviral construct that includes a Wnt-responsive promoter driving expression of the firefly luciferase gene.
SW480 colon carcinoma cells were transduced with a lentiviral vector expressing luciferase with a human Sp5 promoter consisting of a sequence of eight TCF/LEF binding sites. SW480 cells stably expressing the Sp5-Luc reporter gene and a hygromycin resistance gene were selected by treatment with 150 μg/mL of hygromycin for 7 days. These stably transduced SW480 cells were expanded in cell culture and used for all further screening activities. Each compound was dissolved in DMSO as a 10 mM stock and used to prepare compound source plates. Serial dilution (1:3, 10-point dose-response curves starting from 10 μM) and compound transfer was performed using the ECHO 550 (Labcyte, Sunnyvale, Calif.) into 384-well white solid bottom assay plates (Greiner Bio-One) with appropriate DMSO backfill for a final DMSO concentration of 0.1%. For Sp5-Luc reporter gene assays, the cells were plated at 4,000 cells/well in 384-well plates with medium containing 1% fetal bovine serum and incubated overnight at 37° C. and 5% CO2. Following incubation, 20 μl of BrightGlo luminescence reagent (Promega) was added to each well of the 384-well assay plates. The plates were placed on an orbital shaker for 2 min and then luminescence was quantified using the Envision (Perkin Elmer) plate reader. Readings were normalized to DMSO only treated cells, and normalized activities were utilized for EC50 calculations using the dose-response log (inhibitor) vs. response variable slope (four parameters) nonlinear regression feature available in GraphPad Prism 5.0 (or Dotmatics). For EC50 of >10 μM, the percent inhibition at 10 μM is provided.

[2] = system: SW480 colon cancer cells; experiment: Cell viability assay (CellTiter-Blue) in SW480 colon cancer cells; format: cell-based, human; conditions: Homo sapiens, 96 h, four days, CellTiter-Blue
Procedure: Representative compounds were screened using the following assay procedure to assess the effect on cell viability as described below.
Each compound was dissolved in DMSO as a 10 mM stock and used to prepare compound source plates. Serial dilution (1:3, 8-point dose-response curves from 10 μM to 0.0045 μM) and compound transfer was performed using the ECHO 550 (Labcyte, Sunnyvale, Calif.) into 96-well clear bottom, black-walled plates (Corning-Costar).
Approximately 2×10^3 SW480 colon cancer cells were seeded into each well and allowed to incubate in the presence or absence of compound for four days at 37° C./5% CO2. Eight replicates of DMSO-treated cells served as controls and cells treated with compound were performed in duplicate.
After incubation, 20 μL of CellTiter-Blue (Promega) was added to each well allowed to incubate for approximately 3 hours. This reagent was a buffered solution which contains resazurin, metabolically active cells were able to reduce rezarurin (blue) into resorufin (pink) which was highly fluorescent. This measured fluorescence was used as a readout for cell viability.
After incubation, the plates were read at Ex 560 nm Em 590 nm (Cytation 3, BioTek). Dose-response curves were generated and EC50 concentration values were calculated using non-linear regression curve fit in the GraphPad Prism (San Diego, Calif.) or Dotmatics' Studies Software (Bishops Stortford, UK). For EC50 of >10 μM, the percent inhibition at 10 μM is provided.

[3] = system: primary human fibroblasts derived from IPF patients (LL29 cells); experiment: Inhibition of the fibrotic process: αSMA staining in TGF-β1 treated LL29 fibroblasts; format: cell-based; conditions: Homo sapiens, Fibroblast, 96 h, TGF-β1 20 ng/mL, 4 days, % αSMA positive cells
Excerpt: Representative compounds were screened using primary human fibroblasts (derived from IPF patients) treated with TGF-β1 to determine their ability to inhibit the fibrotic process.
Primary human fibroblasts derived from IPF patients (LL29 cells) [^1Xiaoqiu Liu, et. al., “Fibrotic Lung Fibroblasts Show Blunted Inhibition by cAMP Due to Deficient cAMP Response Element-Binding Protein Phosphorylation”, Journal of Pharmacology and Experimental Therapeutics (2005), 315(2), 678-687; ^2Watts, K. L., et. al., “RhoA signaling modulates cyclin D1 expression in human lung fibroblasts; implications for idiopathic pulmonary fibrosis”, Respiratory Research (2006), 7(1), 88] were obtained from American Type Culture Collection (ATCC) and expanded in F12 medium supplemented with 15% Fetal Bovine Serum and Penicillin/Streptomycin.
Each compound was dissolved in DMSO as a 10 mM stock and used to prepare compound source plates. Serial dilution (1:2, 11-point dose-response curves from 10 μM to […]) and compound transfer was performed using the ECHO 550 (Labcyte, Sunnyvale, Calif.) into 384-well clear bottom assay plates (Greiner Bio-One) with appropriate DMSO backfill for a final DMSO concentration of 0.1%. LL29 cells are plated at 1,500 cells/well in 80 μL/well F12 medium supplemented with 1% Fetal Bovine Serum. One hour after addition of the cells, TGF-01 (Peprotech; 20 ng/mL) was added to the plates to induce fibrosis (ref. 1 and 2 above). Wells treated with TGF-β1 and containing DMSO were used as controls. Cells were incubated at 37° C. and 5% CO2 for 4 days. Following incubation for 4 days, SYTOX green nucleic acid stain (Life Technologies [Thermo Fisher Scientific]) was added to the wells at a final concentration of 1 μM and incubated at room temperature for 30 min. Cells were then fixed using 4% formaldehyde (Electron Microscopy Sciences), washed 3 times with PBS followed by blocking and permeabilization using 3% Bovine Serum Albumin (BSA; Sigma) and 0.3% Triton X-100 (Sigma) in PBS. Cells were then stained with antibody specific to α-smooth muscle actin (aSMA; Abcam) (ref. 1 and 2 above) in 3% Bovine Serum Albumin (BSA; Sigma) and 0.3% Triton X-100 (Sigma) in PBS, and incubated overnight at 4° C. Cells were then washed 3 times with PBS, followed by incubation with Alexa Flor-647 conjugated secondary antibody (Life Technologies [Thermo Fisher Scientific]) and DAPI at room temperature for 1 hour. Cells were then washed 3 times with PBS and plates were sealed for imaging. αSMA staining was imaged by excitation at 630 nm and emission at 665 nm and quantified using the Compartmental Analysis program on the CellInsight CX5 (Thermo Scientific). Dead or apoptotic cells were excluded from analysis based on positive SYTOX green staining. % of total cells positive for aSMA were counted in each well and normalized to the average of 11 wells treated with TGF-01 on the same plate using Dotmatics' Studies Software. The normalized averages (fold change over untreated) of 3 replicate wells for each compound concentration were used to create dose-responses curves and EC50 values were calculated using non-linear regression curve fit in the Dotmatics' Studies Software. For EC50 of >10 μM, the percent inhibition at 10 μM is provided.

[4] = system: IL-6; experiment: IL-6 inhibition in LPS-stimulated THP-1 monocytes (HTRF); format: cell-based, human; conditions: Homo sapiens; THP-1 cells, 500 ng/mL LPS, 22 h, HTRF IL-6 readout; 10-point dose-response from 10 μM
Procedure: Human monocyte cell line (THP-1 cells; Catalog # TIB-202, ATCC, Manassas, Va.) were cultured in Roswell Park Memorial Institute (RPMI) 1640 Medium (Catalog #21870-100, Buffalo, N.Y.) with 1% L-glutamine, 1% HEPES, 1% Sodium Pyruvate, 2% Sodium Bicarbonate supplemented with 100 units/mL penicillin, 50 μg/mL streptomycin, 2-mercaptoethanol (0.05 mM) [basal medium] and 10% fetal bovine serum (Catalog #16140089, Life Technologies, Carlsbad, Calif.) at 37° C. and 5% CO2.
THP-1 cells were cultured in basal media with 1% FBS for 24 hours before the start of the assay. Each compound was dissolved in DMSO as a 10 mM stock and used to prepare compound source plates. Serial dilution (1:3, 10-point dose-response curves starting from 10 μM) and compound transfer was performed using the ECHO 550 (Labcyte, Sunnyvale, Calif.) into 384-well white low volume assay plates (Greiner Bio-One) with appropriate DMSO backfill for a final DMSO concentration of 0.1%. THP-1 cells were plated at 5000 cells/well in the 384-well plates and incubated at 37° C. for 2 h. 500 ng/mL of LPS was added after 2 hours and cells were incubated for another 22 hours at 37° C. Plates were spun in a centrifuge for 1 minute at […] and a mixture of anti-IL6 XL665, and anti-IL6 Cryptate diluted in reconstitution buffer (Cisbio Inc.) was added to each well. Following incubation for 3 hrs at room temperature, Homogeneous Time-Resolved Fluorescence (HTRF) was measured using the Envision (Perkin Elmer) at 665 nm and […]. The ratio of fluorescence at 665 nm to 620 nm was used as a readout for IL6 quantification. All samples were processed in duplicate. Readings were normalized to DMSO treated cells and normalized activities were utilized for EC50 calculations using the dose-response log (inhibitor) vs. response variable slope (four parameters) nonlinear regression feature available in GraphPad Prism 5.0 (or Dotmatics). For EC50 of >10 μM, the percent inhibition at 10 μM is provided.

Compound	EC50 [1]	EC50 [2]	EC50 [3]	EC50 [4]
CCCCC(=O)Nc1cncc(-c2cnc3[nH]nc(-c4cc5c(-c6ccccc6F)cccc5[nH]4)c3c2)c1 [Compound 64, N-(5-(3-(4-(2-Fluorophenyl)-1H-indol-2-yl)-1H-pyrazolo[3,4-b]pyridin-5-yl)pyridin-3-yl)pentanamide]	0.796 µM	3.88 µM	1.77 µM	3.29 µM
Cn1cc(-c2cnc3[nH]nc(-c4cc5c(-c6cccs6)cccc5[nH]4)c3c2)cn1 [Compound 702, 5-(1-Methyl-1H-pyrazol-4-yl)-3-(4-(thiophen-2-yl)-1H-indol-2-yl)-1H-pyrazolo[3,4-b]pyridine]	1.32 µM	1.12 µM	0.874 µM	1.37 µM
CCC(=O)Nc1cncc(-c2cnc3[nH]nc(-c4cc5c(N6CCCCC6)cccc5[nH]4)c3c2)c1 [Compound 145, N-(5-(3-(4-(Piperidin-1-yl)-1H-indol-2-yl)-1H-pyrazolo[3,4-b]pyridin-5-yl)pyridin-3-yl)propionamide]	0.29 µM	3.67 µM	1.41 µM	2.64 µM
CN(C)Cc1cncc(-c2cnc3[nH]nc(-c4cc5c(N6CCCCC6)cccc5[nH]4)c3c2)c1 [Compound 157, N,N-Dimethyl-1-(5-(3-(4-(piperidin-1-yl)-1H-indol-2-yl)-1H-pyrazolo[3,4-b]pyridin-5-yl)pyridin-3-yl)methanamine]	1.46 µM	1.86 µM	1.23 µM	2.31 µM
Cc1ncc(-c2cnc3[nH]nc(-c4cc5ncccc5[nH]4)c3c2)n1C [Compound 997, 5-(1,2-Dimethyl-1H-imidazol-5-yl)-3-(1H-pyrrolo[3,2-b]pyridin-2-yl)-1H-pyrazolo[3,4-b]pyridine]	1.08 µM	3.95 µM	0.744 µM	9 µM
CCCC(=O)Nc1cncc(-c2cnc3[nH]nc(-c4cc5c(-c6ccncc6)cccc5[nH]4)c3c2)c1 [Compound 110, N-(5-(3-(4-(Pyridin-4-yl)-1H-indol-2-yl)-1H-pyrazolo[3,4-b]pyridin-5-yl)pyridin-3-yl)butyramide]	0.365 µM	2.26 µM	2.07 µM	0.045 µM
CC(C)Nc1cncc(-c2cnc3[nH]nc(-c4cc5c(N6CCN(C)CC6)cccc5[nH]4)c3c2)c1 [Compound 212, N-Isopropyl-5-(3-(4-(4-methylpiperazin-1-yl)-1H-indol-2-yl)-1H-pyrazolo[3,4-b]pyridin-5-yl)pyridin-3-amine]	1.29 µM	1.94 µM	1.48 µM	0.173 µM
CN(C)c1cncc(-c2cnc3[nH]nc(-c4cc5c(-c6cc(F)cc(CNS(C)(=O)=O)c6)cccc5[nH]4)c3c2)c1 [Compound 457, N-(3-(2-(5-(5-(Dimethylamino)pyridin-3-yl)-1H-pyrazolo[3,4-b]pyridin-3-yl)-1H-indol-4-yl)-5-fluorobenzyl)methanesulfonamide]	0.283 µM	1.12 µM	1.72 µM	1.44 µM
CS(=O)(=O)NCc1cc(F)cc(-c2cccc3[nH]c(-c4n[nH]c5ncc(-c6cncc(NC(=O)c7ccccc7)c6)cc45)cc23)c1 [Compound 461, N-(5-(3-(4-(3-Fluoro-5-(methylsulfonamidomethyl)phenyl)-1H-indol-2-yl)-1H-pyrazolo[3,4-b]pyridin-5-yl)pyridin-3-yl)benzamide]	0.21 µM	1.69 µM	1.34 µM	0.547 µM
